Measurements taken from patent publication US6818212B2, “Antimicrobial composition containing a haloperoxidase, a hydrogen peroxide source, a halide source and an ammonium source” (Novozymes A/S, priority 1997, dated 2004).

Columns and labels:
Type in all cases: cell-based
[1] = system: Staphylococcus epidermidis DSM 20 042; experiment: Bactericidal activity of haloperoxidase with ammonium halides vs potassium/sodium halides as electron donors, Example 3; conditions: for bactericidal activity (possible): ammonium halide salt as electron donor, summary of Table 1; for Log reduction in cell number: haloperoxidase 1 mg/l, 0.5 mM H2O2, pH 6.0, 15 min 40° C.
Protocol: (§1) The bactericidal activity was determined by incubation in Malthus. The detection times measured by the Malthus instrument were converted to cfu/ml by a calibration curve.
(§2) Either direct or indirect Malthus measurements were used when enumerating total survival cells (Malthus Flexi M2060, Malthus Instrument Limited). By the direct measurements, the cell metabolism was determined by conductance measurements in the growth substrate. By the indirect measurements, 3 ml of growth medium was transferred to the outer chamber of the indirect Malthus cells, and 0.5 ml of sterile KOH (0.1 M) was transferred to the inner chamber. The cell suspensions were after enzyme treatment transferred to the outer chamber of the Malthus cell. As cells are growing in the outer chamber they produce CO2 which will dissolve in the KOH in the inner chamber and thereby change the conductance of the KOH. The amount of CO2 formed by the respiring cells surviving the enzyme treatment was used for estimating the number of viable cells. When the conductance change is measurable by the Malthus, a detection time (dt) will be recorded. The dt's were converted to colony counts by use of a calibration curve relating cfu/ml to dt (FIG. 1).
The antibacterial activity of a haloperoxidase (1 mg/l) was tested in MES-buffer (2-[N-morpholino] ethanesulfonic acid) (pH 6.0) against Staphylococcus epidermidis DSM 20 042 with ammonium iodide, ammonium chloride or ammonium bromide as electron donors, and hydrogen peroxide was added as electron acceptor giving the final concentration 0.5 mM. The cells (approximately 10^6 cfu/ml) were incubated with enzyme for 15 min at 40° C. The bactericidal activity was determined by incubation in Malthus (see Example 1).

[2] = system: Staphylococcus epidermidis DSM 20 042; experiment: Bactericidal activity of haloperoxidase with chloride and ethanolamine, HEPES pH 7.0, Example 4; conditions: haloperoxidase 1 mg/L, chloride 80 mM, ethanolamine 2.5 mM, 0.5 mM H2O2, pH 7.0
Protocol: as §1
as §2, with “The amount of CO2 formed by the respiring cells surviving the enzyme treatment was used for estimating the number of viable cells.” left out, “The dt's were converted to colony counts by use of a calibration curve relating cfu/ml to dt (FIG. 1).” left out
The antibacterial activity of Curvularia verruculosa haloperoxidase (1 mg/L) was tested in HEPES-buffer (Sigma H3375)(pH 7.0) against Staphylococcus epidermidis DSM 20 042 with chloride (80 mM) as electron donor combined with ethanolamine (2.5 mM), and hydrogen peroxide was added as electron acceptor giving the final concentration 0.5 mM. […] The bactericidal activity was determined by incubation in Malthus (see Example 1).

[3] = system: Pseudomonas aeruginosa ATCC 10146; experiment: Bactericidal activity of haloperoxidase (rCvP) system, Malthus detection, Example 1; conditions: haloperoxidase 1 mg/l, 0.5 mM H2O2, pH 6
Protocol: (§3) The antibacterial activity of a haloperoxidase was tested in MES-buffer (2-[N-morpholino] ethanesulfonic acid)(pH 6.0) against Pseudomonas aeruginosa ATCC 10146 and Staphylococcus epidermidis DSM 20 042 with sodium chloride as electron donor, and hydrogen peroxide was added as electron acceptor in the presence of NH4+. The cells (approximately 10^6 cfu/ml) were incubated with the enzyme for 15 min at 40° C.
as §1, §2
(§4) Hydrogen peroxide was added to a final concentration of 0.5 mM.

[4] = system: Staphylococcus epidermidis DSM 20 042; experiment: as above; conditions: haloperoxidase 1 mg/l, 0.5 mM H2O2, pH 6
Protocol: as §3, §1, §2, §4

[5] = system: Staphylococcus epidermidis DSM 20 042; experiment: Bactericidal activity of haloperoxidase with iodide or bromide, with or without NH4+, Example 2; conditions: haloperoxidase 1 mg/l
Protocol: as §1, §2
The antibacterial activity of a haloperoxidase (1 mg/l) was tested in MES-buffer (2-[N-morpholino] ethanesulfonic acid) (pH 6.0) against Staphylococcus epidermidis DSM 20 042 with potassium iodide and potassium bromide as electron donor, and hydrogen peroxide (to a final concentration of 0.5 mM) was added as electron acceptor in the presence of NH4^+. The cells (approximately 10^6 cfu/ml) were incubated with enzyme for 15 min at 40° C. The bactericidal activity was determined by incubation in Malthus (see Example 1).

[6] = 0.5 mM H2O2, pH 6.0, no ammonium

Question: How did the “bactericidal activity (possible)” value [1] turn out when `Cl.N` [ClNH4, ammonium chloride] was run?
Answer: Its value is 100%.

Question: What about the “Log reduction in cell number” value ([1]; halide 25 mM) of the same compound?
Answer: Its value is 6.2 log cfu/ml.

Question: And the “Log reduction in cell number” value ([1]; halide 50 mM)?
Answer: Its value is 6.2 log cfu/ml.

Question: For `Br.N` [BrNH4, ammonium bromide], which “bactericidal activity (possible)” value [1] is on record?
Answer: The value was 100%.

Question: What about the “Log reduction in cell number” value ([1]; halide 4 mM) of the same compound?
Answer: Its value is 3.7 log cfu/ml.

Question: What about the “Log reduction in cell number” value ([1]; halide 8 mM) of the same compound?
Answer: The value was 6.2 log cfu/ml.

Question: For `NCCO` [ethanolamine], which kill [2] is on record?
Answer: Its kill is 100%.

Question: Which results are given for `I.N` [INH4, ammonium iodide]?
Answer: bactericidal activity (possible) [1]: 100%; Log reduction in cell number ([1]; halide 0.21 mM): 6.2 log cfu/ml; Log reduction in cell number ([1]; halide 0.5 mM): 6.2 log cfu/ml

Question: What does the source list for `[Cl-].[Na+]` [NaCl, sodium chloride]?
Answer: NaCl concentration at which antibacterial activity was observed [3]: above 20 mM; NaCl concentration at which plateau of antibacterial activity was reached [3]: approximately 100 mM; NaCl concentration at which antibacterial activity was observed [4]: above 20 mM; NaCl concentration at which plateau of antibacterial activity was reached [4]: approximately 100 mM; Log reduction in cell number ([1]; halide 25 mM): 0.5 log cfu/ml; Log reduction in cell number ([1]; halide 50 mM): 0.8 log cfu/ml

Question: For `[Br-].[K+]` [KBr, potassium bromide], which “bromide concentration needed for 100% bactericidal activity” value [5, 6] is on record?
Answer: Its value is greater than 10 mM.

Question: And the “Log reduction in cell number” value ([1]; halide 4 mM)?
Answer: Its value is 2.8 log cfu/ml.

Question: And the “Log reduction in cell number” value ([1]; halide 8 mM)?
Answer: Its value is 5.4 log cfu/ml.

Question: What does the source list for `[I-].[K+]` [KI, potassium iodide]?
Answer: iodide concentration for 100% bactericidal activity ([5]; 0.5 mM H2O2, pH 6.0, ammonium added (FIG. 3)): 0.05-0.1 mm; iodide concentration for 100% antibacterial activity [5, 6]: about 0.2 mM; Log reduction in cell number ([1]; halide 0.25 mM): 5.1 log cfu/ml; Log reduction in cell number ([1]; halide 0.5 mM): 6.1 log cfu/ml
